Ends that are not written are not given here.
Assays:
[1] = Solubility of peptide in organic solvents; assay type: physicochemical; conditions: some organic solvents
[2] = Stability of peptide in an aqueous solution; assay type: physicochemical
[3] = Stability of PACAP 66 in DMSO at 40° C. in the presence of different metal salts (RP-HPLC recovery, CE purity); assay type: physicochemical; conditions: 2 mg/mL; for PACAP 66 degraded: 4 weeks, RP-HPLC
Description: Different metal salts, including ZnCl2, MgCl2, and CaCl2 were separately dissolved at 1 mM in DMSO, a non-aqueous organic solvent. PACAP 66 was then dissolved in these solutions at 2 mg/mL. The bulk solution was aliquoted into 2-mL screw-capped (with an o-ring) sterile polypropylene vials. These stability samples were incubated at 40° C. and analyzed at predetermined intervals.
More than 70% of PACAP 66 was degraded in DMSO in 4 weeks at 40° C. by RP-HPLC, but only approximately 10% of PACAP 66 was degraded in the presence of 1 mM ZnCl2 under the same storage conditions. […] The CE results were similar to the findings from the RP-HPLC analysis.

[4] = Stability of PACAP 66 solution at 300 mg/mL in DMSO at 40° C.; assay type: physicochemical; conditions: 23 weeks
Text: (§1) To test whether a metal salt would stabilize PACAP 66 at a high peptide concentration in an organic solvent, a high concentration of a metal salt would be required, assuming a fixed ratio of metal and peptide is needed for stabilization. A metal salt, however, has limited solubility in an organic solvent Therefore, a similar preparation method was adopted for sample preparation of peptide-metal mixtures at high concentrations, as described under Acidification and Lyophilization of PACAP 66, supra. Briefly, a metal salt and the peptide were first dissolved at a fixed molar ratio in an aqueous solution. The solution was then aliquoted in 3-mL glass vials at a fixed volume and lyophilized. Stability samples were prepared by adding a fixed amount of an organic solvent in the vial. The sample vials were then capped, sealed, and incubated at 40° C. Stability samples were first diluted to a reasonable concentration before analysis by RP-HPLC or CE. Similarly, a peptide suspension was prepared by mixing a proper amount of an organic solvent in a sample vial containing the lyophilized mixture and incubated at 40° C. Stability of solid PACAP 66 was evaluated directly by incubating the sample vial containing the lyophilized mixture at 40° C.
PACAP 66 in the sample was acidified in the absence and presence of ZnCl2. Approximately 70% of the peptide was degraded in the control sample after storage for 23 weeks, while approximately 20% was degraded in the acidified samples in the presence or absence of ZnCl2.

[5] = Stability of PACAP 66 solution at 20 mg/mL in 1-methyl-2-pyrrolinidone at 40° C.; assay type: physicochemical; conditions: acidified samples
Text: as §1
PACAP 66 in the sample was acidified in the absence and presence of ZnCl2.

[6] = Stability of acidified, lyophilized PACAP 66 in DMSO at 40° C.; assay type: physicochemical; conditions: for PACAP 66 degraded: 2 weeks
Description: Several acid solutions were prepared at 0.1%, including HCl, trifluoro acetic acid (TFA), and H3PO4 and cooled to 2-8° C. The cold acid solutions were then mixed with PACAP 66 at a PACAP 66:acid molar ratio of 1:10. After mixing, the cold PACAP 66 solutions were immediately placed inside a precooled freeze-drier and were lyophilized. The lyophilized material was further equilibrated in a desiccator containing P2O5 for at least one day to absorb additional moisture from the lyophilized peptide. The acidified and dried material was then dissolved in DMSO at 2 mg/mL and stability was conducted as described in the upper section.
The recovery of HCl-acidified PACAP 66 at the end of a 2-week period was 97% by RP-HPLC. However, the recovery could be slightly overestimated, as the corresponding purity of PACAP 66 in the sample was only 89% by RP-HPLC.
We understand that peptides can be hydrolyzed readily under acidic conditions in an aqueous solution. […] In the acidification of PACAP 66, the pH of acidified PACAP 66 solution was measured to be 2.2 after addition of TFA. At this pH, PACAP 66 should be rapidly hydrolyzed.

[7] = Stability of PACAP 66 in a lyophilized state at 40° C.; assay type: physicochemical
Text: as §1

[8] = Stability of PACAP 66 suspension at 20 mg/mL in 2-propanol at 40° C.; assay type: physicochemical; conditions: suspension 20 mg/mL in 2-propanol
Text: as §1

[9] = pH 4; cited from earlier work

solubility in organic solvents [1] | effect of different metals on stability ([2]; aqueous solution, 40° C., zinc, magnesium or calcium) | effect of zinc oxide on stability ([2]; aqueous solution, zinc oxide at 10 mM (FIG. 1)) | stability in an aqueous environment ([2]; aqueous, 40° C. (FIG. 1)) | PACAP 66 degraded ([3]; 1 mM ZnCl2) | PACAP 66 degraded ([3]; control without metal salt) | peptide degraded ([4]; acidified (HCl), absence of ZnCl2) | peptide degraded ([4]; acidified (HCl), presence of ZnCl2) | peptide degraded ([4]; control sample) | PACAP 66 degraded ([6]; acidified (HCl, TFA or H3PO4) and lyophilized PACAP 66, DMSO 2 mg/mL) | relative stabilization effect by acids ([6]; acidified and lyophilized PACAP 66 in DMSO) | PACAP 66 degraded ([6]; unprocessed PACAP 66 (control), DMSO 2 mg/mL) | effect of acidification on stability during storage [7] | Substance | stabilizing effect compared with the control ([3]; 1 mM CaCl2) | stabilizing effect compared with the control ([3]; 1 mM MgCl2) | effect of addition of ZnCl2 on stability [5] | effect of addition of ZnCl2 on stability ([7]; acidified) | effect of addition of ZnCl2 on storage stability [8] | stability in an aqueous solution [9]
dissolved easily | does not improve its stability | did not stabilize | not stable | approximately 10% | More than 70% | approximately 20% | approximately 20% | Approximately 70% | less than 10% | HCl >TFA >H3PO4 | More than 50% | significantly stabilized the peptide | HSDAVFTDNYTRLRKQVAAKKYLQSIKNKRY [PACAP 66] | did not have any significant stabilizing effect | did not have any significant stabilizing effect | seems to stabilize PACAP 66 to a higher degree | seems to stabilize the peptide to a higher degree | significantly improved the storage stability | 
 |  |  |  |  |  |  |  |  |  |  |  |  | Secretin: a PACAP-like peptide |  |  |  |  |  | can be degraded easily
